For test [1], the system named is Notch1 nuclear translocation in U937 cells. The conditions noted are these: 10 mM EDTA in PBS at 37° C. for 30 min; labelled 30 min (T=30) after removing the EDTA.
Protocol: A. Stable U937 transfectants which were expressing either the control vector (panels 1 to 3) or Siah-1 (panels 4 to 7) were analysed using a confocal microscope for the endogenous immunofluorescence of Notch1. The cells were labelled with an antibody which recognized the cytoplasmic portion of human Notch1, followed by an FITC-conjugated secondary antibody. The Notch immunofluorescence analysis is related either to low magnification (panels 1 and 4) or to high magnification (panels 2, 3, 5, 6 and 7). […] The labelling with propidium iodide was included in order to better visualize the nuclear labelling of Notch1 (panels 3, 6 and 7). […] The bar represents a length of 5 μm.
Cells were incubated in 10 mM EDTA containing PBS at 37° C. for 30 min, and then washed and labelled with anti-Notch1 (intracellular) antibodies either immediately (T=0) or 30 min (T=30) after removing the EDTA. The cells were counterlabelled with propidium iodide in order to visualize the nucleus.
Test [2] relates to quantity of Numb protein in 293T cells. Nature of the test: Western blot of Numb protein in transfected 293T cells with or without proteasome inhibitor. The format is cell-based, human. The note with it: 293T cells cotransfected with Numb, Siah-1 +/- Mdm2; 50 μM MG132 for 6 hours; anti-Numb Western blot, FIG. 2B lanes 6, 7 and 8. How it is done:
FIG. 2: Analysis of the effect of the in vivo interaction between Siah and Numb on the levels at which the proteins are expressed. FIG. 2.A. 293T cells were cotransfected with an empty expression vector (column 1) or expressing Numb (column 2), Siah-1 (column 3), Numb and Siah-1 (column 4), Numb and Mdm2 (column 5), and Numb, Siah-1 and Mdm2 (column 6). 48 hours after transfection, a Western blot analysis was carried out using an anti-Numb antibody. A control was also performed using an anti-GFP (green fluorescent protein) antibody as a loading standard on the gel. FIG. 2.B. The Western blot was analysed as previously described in the absence or presence of an inhibitor of the ubiquitin proteasome (MG 132). Without MG 132, the quantity of Numb protein decreases in the presence of Siah-1, with or without Mdm2 (lanes 2, 3 and 4). […]
The cell lysates were separated by SDS-PAGE gel electrophoresis and transferred to a nitrocellulose membrane (Biorad), with this being followed by a Western blot analysis using the Numb polyclonal antibody (Weizmann Institute, Ref. 3465, or reference N80220 from Transduction Laboratories) and the anti-GFP monoclonal antibody (Boehringer, Ref. 1814460) in order to verify standardization of the quantities which were loaded onto the gel. […]

Where a SMILES comes first, the peptide text is derived from it. The star is where a group is joined. Cbz = O=C(OCc1ccccc1)*

Turning to `O=C(O)CN(CCN(CC(=O)O)CC(=O)O)CC(=O)O` [EDTA], the “nuclear translocation of Notch1” value in test [1] is “positive Notch1 labelling in the nucleus”.

In the case of `CC(C)C[C@@H](C=O)NC(=O)[C@H](CC(C)C)NC(=O)[C@H](CC(C)C)NC(=O)OCc1ccccc1` [MG 132] (Cbz-Leu-Leu-Leu-aldehyde), the “quantity of Numb protein in the presence of Siah-1, with or without Mdm2” value in test [2] is recorded as “remains constant”.

The values above are taken from patent publication US20040175773A1, “Screening method based on siah-numb interaction” (priority 2000, published 2004).
